pIC50: −log10 of the molar value.
Key:
Format in all cases: biochemical
[1] = biological target: TYK2 (Homo sapiens, UniProt P29597); test: JAK kinase activity, homogeneous time-resolved fluorescence (TYK2 reaction system); conditions: ATP 2 μM, TYK2 protein 0.2 ng/μL; read-out: TYK 2 activity
Procedure, shortened: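 Activity read as the 665 nm/615 nm ratio after adding EDTA-containing detection mix with anti-phospho-substrate antibody and XL-615. Beforehand, 0.2 ng/μL TYK2, 2 μM ATP, substrate and compound reacted 1 h in pH 7.0 Hepes buffer with MgCl2 and DTT. IC50 fitted with Hill-slope equation.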

[2] = biological target: JAK1 (Homo sapiens, UniProt P23458); test: JAK kinase activity, homogeneous time-resolved fluorescence (JAK1 reaction system); conditions: ATP 2 μM, JAK1 protein 0.2 ng/μL; read-out: JAK 1 activity
Procedure, shortened: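 HTRF assay: JAK1 (0.2 ng/μL) with 2 μM ATP and substrate in 50 mM Hepes pH 7.0, 5 mM MgCl2, 1 mM DTT, 1 h. Phospho-substrate antibody/XL-615 detection with EDTA; 665/615 nm ratio, excitation 320 nm. IC50 from Hill-type fit against no-enzyme and no-compound controls.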

[3] = biological target: T1, JAK3 (Homo sapiens, UniProt P52333); test: JAK kinase activity, homogeneous time-resolved fluorescence (JAK3 reaction system); conditions: ATP 2 μM, JAK3 protein 0.04 ng/μL; read-out: JAK 3 activity
T1 sequence (P52333 1-1124): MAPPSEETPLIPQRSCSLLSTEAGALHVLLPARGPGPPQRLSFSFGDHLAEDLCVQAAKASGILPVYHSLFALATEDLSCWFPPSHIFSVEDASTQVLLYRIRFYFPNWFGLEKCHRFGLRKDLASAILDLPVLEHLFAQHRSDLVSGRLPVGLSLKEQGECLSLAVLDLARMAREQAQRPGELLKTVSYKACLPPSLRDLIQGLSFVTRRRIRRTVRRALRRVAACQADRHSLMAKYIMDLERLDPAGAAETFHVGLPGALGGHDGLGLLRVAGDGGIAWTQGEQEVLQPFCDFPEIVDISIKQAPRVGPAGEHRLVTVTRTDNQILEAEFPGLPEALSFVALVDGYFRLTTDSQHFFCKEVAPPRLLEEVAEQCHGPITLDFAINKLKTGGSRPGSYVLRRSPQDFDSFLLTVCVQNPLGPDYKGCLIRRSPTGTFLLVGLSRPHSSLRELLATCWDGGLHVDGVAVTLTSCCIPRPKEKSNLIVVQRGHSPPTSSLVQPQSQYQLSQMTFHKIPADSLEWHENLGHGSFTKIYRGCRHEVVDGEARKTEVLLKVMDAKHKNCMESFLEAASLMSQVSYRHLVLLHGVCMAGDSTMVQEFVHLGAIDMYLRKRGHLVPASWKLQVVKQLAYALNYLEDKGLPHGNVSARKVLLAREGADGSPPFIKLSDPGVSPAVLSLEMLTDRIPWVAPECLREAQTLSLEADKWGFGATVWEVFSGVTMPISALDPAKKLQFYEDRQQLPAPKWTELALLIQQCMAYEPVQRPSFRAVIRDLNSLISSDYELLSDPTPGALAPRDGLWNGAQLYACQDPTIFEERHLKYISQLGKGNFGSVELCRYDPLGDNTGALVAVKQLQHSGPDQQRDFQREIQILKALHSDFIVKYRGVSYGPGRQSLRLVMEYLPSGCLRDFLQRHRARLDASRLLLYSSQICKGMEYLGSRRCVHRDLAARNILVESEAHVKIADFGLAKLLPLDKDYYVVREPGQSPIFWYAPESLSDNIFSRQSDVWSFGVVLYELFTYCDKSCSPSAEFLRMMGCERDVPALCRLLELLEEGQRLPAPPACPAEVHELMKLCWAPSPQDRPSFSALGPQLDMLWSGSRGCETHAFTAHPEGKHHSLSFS

[4] = biological target: JAK2 (Homo sapiens, UniProt O60674); test: JAK kinase activity, homogeneous time-resolved fluorescence (JAK2 reaction system); conditions: ATP 2 μM, JAK2 protein 0.01 ng/μL
Procedure, shortened: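 IC50 derived by Hill-equation fit of the 665/615 nm time-resolved fluorescence ratio after EDTA-containing detection mix with anti-phosphosubstrate antibody. Preceding 1 h reaction contained 2 μM ATP, 0.01 ng/μL JAK2, substrate, 50 mM Hepes pH 7.0, 5 mM MgCl2, 1 mM DTT.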

Chain of JAK2 (O60674 whole entry): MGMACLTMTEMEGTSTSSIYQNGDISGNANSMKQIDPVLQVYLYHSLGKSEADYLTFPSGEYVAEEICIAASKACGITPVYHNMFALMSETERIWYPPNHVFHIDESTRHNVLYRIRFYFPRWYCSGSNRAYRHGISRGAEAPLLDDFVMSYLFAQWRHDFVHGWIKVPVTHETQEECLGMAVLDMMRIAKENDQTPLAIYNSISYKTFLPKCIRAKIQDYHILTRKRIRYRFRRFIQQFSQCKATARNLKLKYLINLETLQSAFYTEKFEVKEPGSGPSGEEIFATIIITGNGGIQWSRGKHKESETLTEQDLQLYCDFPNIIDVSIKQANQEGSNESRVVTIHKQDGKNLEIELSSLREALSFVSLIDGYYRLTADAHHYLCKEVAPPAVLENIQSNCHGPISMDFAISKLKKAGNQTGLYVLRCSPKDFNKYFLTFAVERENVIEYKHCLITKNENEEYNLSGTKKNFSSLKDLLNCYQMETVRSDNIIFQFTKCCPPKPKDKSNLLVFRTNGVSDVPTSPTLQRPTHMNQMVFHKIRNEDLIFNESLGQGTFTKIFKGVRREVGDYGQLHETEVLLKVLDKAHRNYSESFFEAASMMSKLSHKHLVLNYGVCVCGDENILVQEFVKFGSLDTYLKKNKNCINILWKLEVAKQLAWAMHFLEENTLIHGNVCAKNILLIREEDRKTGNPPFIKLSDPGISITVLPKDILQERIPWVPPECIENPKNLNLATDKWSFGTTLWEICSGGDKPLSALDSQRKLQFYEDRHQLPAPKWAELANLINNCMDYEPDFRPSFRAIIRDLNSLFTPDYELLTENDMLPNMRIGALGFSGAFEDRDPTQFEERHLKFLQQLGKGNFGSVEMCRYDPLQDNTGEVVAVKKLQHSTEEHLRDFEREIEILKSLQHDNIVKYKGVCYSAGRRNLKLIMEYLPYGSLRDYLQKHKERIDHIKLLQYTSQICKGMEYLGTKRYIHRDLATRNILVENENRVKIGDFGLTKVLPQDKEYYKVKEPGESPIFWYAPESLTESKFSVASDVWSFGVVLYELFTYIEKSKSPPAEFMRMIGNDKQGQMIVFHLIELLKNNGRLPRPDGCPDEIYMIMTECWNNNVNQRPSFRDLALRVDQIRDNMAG
Chain of TYK2 (P29597 whole entry): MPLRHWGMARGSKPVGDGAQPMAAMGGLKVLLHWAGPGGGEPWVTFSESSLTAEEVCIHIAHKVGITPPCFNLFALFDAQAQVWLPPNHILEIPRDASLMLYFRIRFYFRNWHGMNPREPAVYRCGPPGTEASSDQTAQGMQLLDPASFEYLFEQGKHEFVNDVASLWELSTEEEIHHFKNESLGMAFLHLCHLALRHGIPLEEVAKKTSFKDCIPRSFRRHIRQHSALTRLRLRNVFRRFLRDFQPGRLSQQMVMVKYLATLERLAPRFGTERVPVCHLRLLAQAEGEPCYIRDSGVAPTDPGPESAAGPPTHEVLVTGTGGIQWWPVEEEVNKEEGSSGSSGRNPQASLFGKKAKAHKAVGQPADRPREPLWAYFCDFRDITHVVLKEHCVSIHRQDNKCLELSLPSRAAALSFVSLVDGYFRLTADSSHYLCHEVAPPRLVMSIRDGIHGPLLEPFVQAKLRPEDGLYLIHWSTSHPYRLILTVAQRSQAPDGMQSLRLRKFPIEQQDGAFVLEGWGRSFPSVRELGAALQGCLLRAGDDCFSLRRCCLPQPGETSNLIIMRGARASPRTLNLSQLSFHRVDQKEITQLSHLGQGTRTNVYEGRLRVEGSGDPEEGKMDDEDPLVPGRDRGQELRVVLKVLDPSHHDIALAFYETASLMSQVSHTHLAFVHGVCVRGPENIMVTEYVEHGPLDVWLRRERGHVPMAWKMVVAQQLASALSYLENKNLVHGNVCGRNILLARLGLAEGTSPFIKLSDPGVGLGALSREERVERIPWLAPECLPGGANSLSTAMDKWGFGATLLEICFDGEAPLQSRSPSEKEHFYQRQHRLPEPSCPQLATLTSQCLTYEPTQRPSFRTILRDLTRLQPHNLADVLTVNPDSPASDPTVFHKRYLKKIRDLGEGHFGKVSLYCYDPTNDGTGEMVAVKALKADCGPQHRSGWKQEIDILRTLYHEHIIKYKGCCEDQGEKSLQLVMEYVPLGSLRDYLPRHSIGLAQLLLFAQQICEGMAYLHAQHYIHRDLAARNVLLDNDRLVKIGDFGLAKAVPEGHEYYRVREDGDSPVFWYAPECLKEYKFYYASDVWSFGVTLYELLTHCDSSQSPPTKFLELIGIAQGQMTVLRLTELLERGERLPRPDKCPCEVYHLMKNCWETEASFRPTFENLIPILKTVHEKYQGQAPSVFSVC
Chain of JAK1 (P23458 whole entry): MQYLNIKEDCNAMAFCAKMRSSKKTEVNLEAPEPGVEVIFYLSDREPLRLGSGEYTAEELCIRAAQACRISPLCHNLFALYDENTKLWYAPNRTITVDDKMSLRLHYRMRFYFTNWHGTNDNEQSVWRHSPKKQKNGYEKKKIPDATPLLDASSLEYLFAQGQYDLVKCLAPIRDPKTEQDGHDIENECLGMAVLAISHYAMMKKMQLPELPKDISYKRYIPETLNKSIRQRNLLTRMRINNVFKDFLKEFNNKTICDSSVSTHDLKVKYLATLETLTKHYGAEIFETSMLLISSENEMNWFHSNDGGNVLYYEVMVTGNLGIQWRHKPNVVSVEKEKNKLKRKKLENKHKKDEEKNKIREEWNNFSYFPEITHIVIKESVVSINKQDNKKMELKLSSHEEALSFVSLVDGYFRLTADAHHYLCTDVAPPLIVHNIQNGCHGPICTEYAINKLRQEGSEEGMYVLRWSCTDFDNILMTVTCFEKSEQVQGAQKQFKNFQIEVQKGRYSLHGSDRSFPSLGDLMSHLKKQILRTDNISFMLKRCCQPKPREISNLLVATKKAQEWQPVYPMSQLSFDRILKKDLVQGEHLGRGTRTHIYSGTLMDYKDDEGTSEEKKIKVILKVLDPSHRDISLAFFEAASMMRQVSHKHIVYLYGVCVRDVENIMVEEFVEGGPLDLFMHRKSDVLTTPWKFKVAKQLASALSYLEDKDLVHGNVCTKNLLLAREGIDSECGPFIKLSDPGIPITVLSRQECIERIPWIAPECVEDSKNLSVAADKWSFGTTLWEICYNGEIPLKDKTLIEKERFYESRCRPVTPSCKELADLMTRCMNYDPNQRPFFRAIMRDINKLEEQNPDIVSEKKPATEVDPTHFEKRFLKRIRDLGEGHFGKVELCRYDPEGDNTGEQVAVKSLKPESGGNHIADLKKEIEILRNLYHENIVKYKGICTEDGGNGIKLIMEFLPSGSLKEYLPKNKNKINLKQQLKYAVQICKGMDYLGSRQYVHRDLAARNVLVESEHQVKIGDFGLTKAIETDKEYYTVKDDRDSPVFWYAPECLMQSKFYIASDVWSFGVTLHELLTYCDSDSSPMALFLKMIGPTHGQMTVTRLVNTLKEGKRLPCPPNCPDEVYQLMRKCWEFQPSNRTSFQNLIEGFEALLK

O=C1NCCCCCCOCc2cc(ccc2N2CCOCC2)Nc2nccc(n2)-c2ccc1cc2[N+](=O)[O-] [Example 56, 1^2-nitro-4^4-morpholin-6-oxa-3,13-di-aza-2(4,2)-pyrimidina-1(1,4),4(1,3)-dibenzenacyclotetradecaphan-14-one]
pIC50 [1]: < 5.00
pIC50 [2]: < 5.00
pIC50 [3]: 5.00 to 6.00
pIC50 [4]: 5.00 to 6.00

O=C1NCCCCOCc2cc(ccc2N2CCOCC2)Nc2ncc(Cl)c(n2)-c2ccc1cc2 [Example 9, 2^5-chloro-4^4-morpholin-6-oxa-3,11-diaza-2(4,2)-pyrimidina-1(1,4),4(1,3)-dibenzenacyclododecaphan-12-one]
pIC50 [1]: 7.00 to 7.96
pIC50 [2]: 7.00 to 7.96
pIC50 [3]: > 8.00
pIC50 [4]: > 8.00

O=C1NCCCCOCc2cc(ccc2N2CCOCC2)Nc2nccc(n2)-c2ccc1cc2Cl [Example 30, 1^2-chloro-4^4-morpholin-6-oxa-3,11-diaza-2(4,2)-pyrimidina-1(1,4),4(1,3)-dibenzenacyclododecaphan-12-one]
pIC50 [1]: 6.00 to 7.00
pIC50 [2]: 6.00 to 7.00
pIC50 [3]: 7.00 to 7.96
pIC50 [4]: 7.00 to 7.96

Nc1cc2ccc1-c1ccnc(n1)Nc1ccc(OC3CC(F)(F)C3)c(c1)COCCCCNC2=O [Example 98, 1^2-amino-4^4-(3,3-difluorocyclobuto-xy)-6-oxa-3,11-diaza-2(4,2)-pyri-midina-1(1,4),4(1,3)-dibenzenacyclo-dodecaphan-12-one]
pIC50 [1]: 5.00 to 6.00
pIC50 [2]: 6.00 to 7.00
pIC50 [3]: 7.00 to 7.96
pIC50 [4]: 6.00 to 7.00

COc1cccc(F)c1COc1ccc2cc1COCCCCNC(=O)c1ccc(c([N+](=O)[O-])c1)-c1ccnc(n1)N2 [Example 171, 4^4-((2-fluoro-6-methoxybenzyl)oxy)-1^2-nitro-6-oxa-3,11-diaza-2(4,2)-pyrimidina-1(1,4),4(1,3)-di-benzenacyclododecaphan-12-one]
pIC50 [1]: < 5.00
pIC50 [2]: 5.00 to 6.00
pIC50 [3]: 5.00 to 6.00
pIC50 [4]: 5.00 to 6.00

4^4-((1,3-dihydroisobenzofuran-4- yl)methoxy)-1^2-nitro-6-oxa-3,11-di- aza-2(4,2)-pyrimidina-1(1,4),4(1,3)- dibenzenacyclododecaphan-12- one [Example 159]
pIC50 [1]: < 5.00
pIC50 [2]: < 5.00
pIC50 [3]: 5.00 to 6.00
pIC50 [4]: < 5.00

O=C1NCCCCOCc2cc(ccc2Cl)Nc2nccc(n2)-c2ccc1cc2[N+](=O)[O-] [Example 60, 1^2-nitro-4^4-chloro-6-oxa-3,11-diaza-2(4,2)-pyrimidina-1(1,4),4(1,3)-di-benzenacyclododecaphan-12-one]
pIC50 [1]: 5.00 to 6.00
pIC50 [2]: 6.00 to 7.00
pIC50 [3]: 6.00 to 7.00
pIC50 [4]: 6.00 to 7.00

O=C1NCCCCOCc2cc(ccc2OC2CCOCC2)Nc2nccc(n2)-c2ccc1cc2[N+](=O)[O-] [Example 61, 1^2-nitro-4^4-(2H-tetrahydropyran-4-oxo)-6-oxa-3,11-diaza-2(4,2)-pyrimi-dina-1(1,4),4(1,3)-dibenzenacyclo-dodecaphan-12-one]
pIC50 [1]: < 5.00
pIC50 [2]: 5.00 to 6.00
pIC50 [3]: 6.00 to 7.00
pIC50 [4]: 5.00 to 6.00

Nc1cc2ccc1-c1ccnc(n1)Nc1cc(F)c(OC3CCOCC3)c(c1)COCCCCNC2=O [Example 84, 1^2-amino-4^5-fluoro-4^4-((tetrahydro-2H-pyran-4-yl)oxy)-6-oxa-3,11-dia-za-2(4,2)-pyrimidina-1(1,4),4(1,3)-dibenzenacyclododecaphan-12-one]
pIC50 [1]: 5.00 to 6.00
pIC50 [2]: 6.00 to 7.00
pIC50 [3]: 7.00 to 7.96
pIC50 [4]: 6.00 to 7.00

Nc1cc2ccc1-c1ccnc(n1)Nc1ccc(OC3CC3)c(c1)COCCCCNC2=O [Example 74, 1^2-amino-4^4-cyclopropoxy-6-oxa-3,11-diaza-2(4,2)-pyrimidina-1(1,4),4(1,3)-dibenzenacyclododecaphan-12-one]
pIC50 [1]: 5.00 to 6.00
pIC50 [2]: 5.00 to 6.00
pIC50 [3]: > 8.00
pIC50 [4]: 6.00 to 7.00

O=C1NCCCCOCc2cc(cc(N3CCOCC3)c2)Nc2nccc(n2)-c2ccc1cc2[N+](=O)[O-] [Example 51, 1^2-nitro-4^5-morpholin-6-oxa-3,11-di-aza-2(4,2)-pyrimidina-1(1,4),4(1,3)-dibenzenacyclododecaphan-12-one]
pIC50 [1]: < 5.00
pIC50 [2]: 5.00 to 6.00
pIC50 [3]: 6.00 to 7.00
pIC50 [4]: 5.00 to 6.00

CC(C)Oc1ccc2cc1COCC[C@H](C)CNC(=O)c1ccc(c(N)c1)-c1ccnc(n1)N2 [Example 189, (S)-1^2-amino-4^4-isopropoxy-9-meth-yl-6-oxa-3,11-diaza-2(4,2)-pyrimi-dina-1(1,4),4(1,3)-dibenzenacyclo-dodecaphan-12-one]
pIC50 [1]: < 5.00
pIC50 [2]: 6.00 to 7.00
pIC50 [3]: 7.00 to 7.96
pIC50 [4]: 6.00 to 7.00

O=C1NCCCCOCc2cc(ccc2OCC2CC2)Nc2nccc(n2)-c2ccc1cc2[N+](=O)[O-] [Example 111, 4^4-(cyclopropylmethoxy)-1^2-nitro-6-oxa-3,11-diaza-2(4,2)-pyrimidina-1(1,4),4(1,3)-dibenzenacyclo-dodecaphan-12-one]
pIC50 [1]: < 5.00
pIC50 [2]: 5.00 to 6.00
pIC50 [3]: 6.00 to 7.00
pIC50 [4]: 5.00 to 6.00

Nc1cc2ccc1-c1ccnc(n1)Nc1ccc(OC3CCCCC3)c(c1)COCCCCNC2=O [Example 47, 1^2-amino-4^4-cyclohexyloxy-6-oxa-3,11-diaza-2(4,2)-pyrimidina-1(1,4),4(1,3)-dibenzenacyclododecaphan-12-one]
pIC50 [1]: 5.00 to 6.00
pIC50 [2]: 5.00 to 6.00
pIC50 [3]: 7.00 to 7.96
pIC50 [4]: 5.00 to 6.00

COc1ccc2cc1COCCCCNC(=O)c1ccc(c(F)c1)-c1ccnc(n1)N2 [Example 15, 1^2-fluoro-4^4-methoxy-6-oxa-3,11-di-aza-2(4,2)-pyrimidina-1(1,4),4(1,3)-dibenzenacyclododecaphan-12-one]
pIC50 [1]: 5.00 to 6.00
pIC50 [2]: 6.00 to 7.00
pIC50 [3]: 7.00 to 7.96
pIC50 [4]: 6.00 to 7.00

O=C1NCCCCOCc2cc(ccc2N2CCOCC2)Nc2ncc(Cl)c(n2)-c2ccc1cc2Cl [Example 17, 1^2,2^5-dichloro-4^4-morpholin-6-oxa-3,11-diaza-2(4,2)-pyrimidina-1(1,4),4(1,3)-dibenzenacyclododecaphan-12-one]
pIC50 [1]: 5.00 to 6.00
pIC50 [2]: 5.00 to 6.00
pIC50 [3]: 6.00 to 7.00
pIC50 [4]: 6.00 to 7.00

Nc1cc2ccc1-c1ccnc(n1)Nc1ccc(OCc3cccc4c3COC4)c(c1)COCCCCNC2=O [Example 160, 1^2-amino-4^4-((1,3-dihydroisobenzo-furan-4-yl)methoxy)-6-oxa-3,11-diaza-2(4,2)-pyrimidina-1(1,4),4(1,3)-dibenzenacyclododecaphan-12-one]
pIC50 [1]: 5.00 to 6.00
pIC50 [2]: 5.00 to 6.00
pIC50 [3]: 7.00 to 7.96
pIC50 [4]: 6.00 to 7.00

O=C1NCCCCOCc2cc(ccc2OCC2CCCC2)Nc2nccc(n2)-c2ccc1cc2[N+](=O)[O-] [Example 104, 4^4-(cyclopentylmethoxy)-1^2-nitro-6-oxa-3,11-diaza-2(4,2)-pyrimidina-1(1,4),4(1,3)-dibenzenacyclodo-decaphan-12-one]
pIC50 [1]: < 5.00
pIC50 [2]: < 5.00
pIC50 [3]: 6.00 to 7.00
pIC50 [4]: 5.00 to 6.00

O=C1NCCCCOCc2cc(ccc2OCC(F)(F)F)Nc2nccc(n2)-c2ccc1cc2[N+](=O)[O-] [Example 108, 1^2-nitro-4^4-(2,2,2-trifluoroethoxy)-6-oxa-3,11-diaza-2(4,2)-pyrimidina-1(1,4),4(1,3)-dibenzenacyclo-dodecaphan-12-one]
pIC50 [1]: < 5.00
pIC50 [2]: 5.00 to 6.00
pIC50 [3]: 6.00 to 7.00
pIC50 [4]: 5.00 to 6.00

Source: patent publication US20230203059A1, “MACROCYCLIC JAK INHIBITOR AND USES THEREOF” (Biopolar Hongye (Guangdong) Pharmaceutical Co. Ltd., priority 2020, published 2023)
